Test results published in ChEMBL document CHEMBL1201862, “PubChem BioAssay data set” (2004).
The source made the active and inactive calls.

Experiments:
[1] = target: Beta-2 adrenergic receptor (Homo sapiens, UniProt P07550); assay: ADRB2 activation measured by internalization – cell-based, FAP fluorogen, flow cytometry, cherry pick 1, dose response (AID 588763); type: functional
[2] = viability of HCT116 lacking mutant beta-catenin – cell-based, human colon tumor, dose response (AID 1045); type: functional;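 also: HCT116 colon tumor cells with beta catenin knocked out; cells exposed to compound for 60 hours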
[3] = viability of PTEN-deleted HCT116 cells – cell-based, HCT116 PTEN knockout, dose response (AID 1047); type: functional;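 also: HCT116 colon tumor cells with PTEN knocked out; cells exposed to compound for 60 hours before readout; potency for loss of cell viability measured by luminescence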
Vero [4] = assay: cells; type: functional; conditions: Chlorocebus sabaeus
Vero [5] = assay: cells; type: functional, cell-based; conditions: Chlorocebus sabaeus
[6] = target: T1, Microphthalmia-associated transcription factor (Homo sapiens, UniProt O75030); assay: reducers of TRPM1 reporter luminescence, concentration series – cell-based, SK-MEL-5, cherry-picked, set 3, MITF inhibitor project, dose response (AID 493073); type: functional;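 also: SK-MEL-5 melanoma cells with luciferase driven by the MITF target TRPM1 promoter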
T1 sequence (O75030 whole entry): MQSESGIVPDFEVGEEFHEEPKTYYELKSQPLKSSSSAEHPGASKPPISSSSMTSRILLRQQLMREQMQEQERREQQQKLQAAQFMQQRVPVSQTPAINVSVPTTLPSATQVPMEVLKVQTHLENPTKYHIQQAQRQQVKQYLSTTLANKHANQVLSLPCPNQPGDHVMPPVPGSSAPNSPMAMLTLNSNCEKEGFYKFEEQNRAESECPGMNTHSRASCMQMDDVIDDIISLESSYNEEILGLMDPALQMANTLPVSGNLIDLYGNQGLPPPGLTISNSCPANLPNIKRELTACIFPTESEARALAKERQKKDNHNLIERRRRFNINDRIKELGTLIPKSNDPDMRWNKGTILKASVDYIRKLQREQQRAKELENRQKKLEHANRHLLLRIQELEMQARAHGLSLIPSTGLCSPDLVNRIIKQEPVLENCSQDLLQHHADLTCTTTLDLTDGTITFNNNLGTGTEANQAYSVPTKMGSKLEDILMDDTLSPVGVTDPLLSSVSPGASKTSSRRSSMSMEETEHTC

[7] = target: T2, Sentrin-specific protease 8 (Homo sapiens, UniProt Q96LD8); assay: inhibition of human SENP8 cleavage activity – biochemical, luminescence, SAR follow-up (AID 504501); type: functional
T2 sequence (Q96LD8 whole entry): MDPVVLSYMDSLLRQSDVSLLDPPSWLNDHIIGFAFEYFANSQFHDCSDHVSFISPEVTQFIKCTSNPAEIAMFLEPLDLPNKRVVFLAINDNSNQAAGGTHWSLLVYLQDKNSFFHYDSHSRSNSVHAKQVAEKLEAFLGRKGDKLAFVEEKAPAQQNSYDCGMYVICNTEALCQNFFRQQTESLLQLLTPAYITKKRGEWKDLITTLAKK

[8] = target: T3, Sentrin-specific protease 7 (Homo sapiens, UniProt Q9BQF6); assay: inhibition of human SENP7 cleavage activity – biochemical, luminescence, SAR follow-up (AID 504497); type: functional
T3 sequence (Q9BQF6 whole entry): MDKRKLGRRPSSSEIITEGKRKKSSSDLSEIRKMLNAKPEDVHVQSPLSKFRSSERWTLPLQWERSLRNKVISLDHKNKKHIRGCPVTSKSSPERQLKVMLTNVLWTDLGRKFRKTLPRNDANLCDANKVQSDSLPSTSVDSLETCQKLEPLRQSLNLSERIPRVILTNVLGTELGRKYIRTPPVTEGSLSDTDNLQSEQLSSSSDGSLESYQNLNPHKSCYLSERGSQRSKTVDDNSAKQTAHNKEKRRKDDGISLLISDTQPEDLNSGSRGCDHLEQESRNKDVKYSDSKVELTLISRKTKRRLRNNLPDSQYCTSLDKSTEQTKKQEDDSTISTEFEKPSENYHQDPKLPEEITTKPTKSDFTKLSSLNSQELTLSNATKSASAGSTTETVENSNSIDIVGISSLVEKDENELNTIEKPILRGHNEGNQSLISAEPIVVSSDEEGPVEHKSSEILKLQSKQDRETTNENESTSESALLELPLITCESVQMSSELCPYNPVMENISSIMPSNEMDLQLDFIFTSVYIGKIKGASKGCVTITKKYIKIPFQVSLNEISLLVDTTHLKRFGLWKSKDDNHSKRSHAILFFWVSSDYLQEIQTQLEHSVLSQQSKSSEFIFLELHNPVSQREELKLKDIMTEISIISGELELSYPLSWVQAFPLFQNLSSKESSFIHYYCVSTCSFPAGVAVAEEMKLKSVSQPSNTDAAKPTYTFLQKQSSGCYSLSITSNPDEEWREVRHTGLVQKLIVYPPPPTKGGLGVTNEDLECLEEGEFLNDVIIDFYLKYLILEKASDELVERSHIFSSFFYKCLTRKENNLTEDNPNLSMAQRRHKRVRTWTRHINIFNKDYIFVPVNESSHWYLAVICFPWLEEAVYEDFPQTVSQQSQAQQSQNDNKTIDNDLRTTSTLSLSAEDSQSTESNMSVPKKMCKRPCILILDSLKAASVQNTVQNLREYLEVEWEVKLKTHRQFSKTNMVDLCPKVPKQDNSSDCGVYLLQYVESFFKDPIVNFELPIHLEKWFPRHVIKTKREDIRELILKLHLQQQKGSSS

Caspase-3 = target: T4, Caspase-3 (Homo sapiens, UniProt P42574); assay: SAR Analysis of small molecule inhibitors of Sentrin-specific proteases (SENPs) using a Caspase-3 Selectivity assay. [Related pubchem assays (depositor defined):AID2540, AID2599, AID434973, AID489001]; type: functional
T4 sequence (P42574 whole entry): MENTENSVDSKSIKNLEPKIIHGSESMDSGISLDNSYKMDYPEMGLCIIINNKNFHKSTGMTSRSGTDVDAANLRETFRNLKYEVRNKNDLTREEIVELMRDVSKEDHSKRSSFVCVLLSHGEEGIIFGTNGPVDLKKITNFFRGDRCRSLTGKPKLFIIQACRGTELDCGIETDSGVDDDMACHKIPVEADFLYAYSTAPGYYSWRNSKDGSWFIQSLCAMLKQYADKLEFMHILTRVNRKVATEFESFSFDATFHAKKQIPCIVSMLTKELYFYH

[9] = target: T5, Sentrin-specific protease 6 (Homo sapiens, UniProt Q9GZR1); assay: SAR Analysis of small molecule inhibitors of Sentrin-specific protease 6 (SENP6) using a Luminescent assay. [Related pubchem assays (depositor defined):AID2582, AID2599]; type: functional
T5 sequence (Q9GZR1 whole entry): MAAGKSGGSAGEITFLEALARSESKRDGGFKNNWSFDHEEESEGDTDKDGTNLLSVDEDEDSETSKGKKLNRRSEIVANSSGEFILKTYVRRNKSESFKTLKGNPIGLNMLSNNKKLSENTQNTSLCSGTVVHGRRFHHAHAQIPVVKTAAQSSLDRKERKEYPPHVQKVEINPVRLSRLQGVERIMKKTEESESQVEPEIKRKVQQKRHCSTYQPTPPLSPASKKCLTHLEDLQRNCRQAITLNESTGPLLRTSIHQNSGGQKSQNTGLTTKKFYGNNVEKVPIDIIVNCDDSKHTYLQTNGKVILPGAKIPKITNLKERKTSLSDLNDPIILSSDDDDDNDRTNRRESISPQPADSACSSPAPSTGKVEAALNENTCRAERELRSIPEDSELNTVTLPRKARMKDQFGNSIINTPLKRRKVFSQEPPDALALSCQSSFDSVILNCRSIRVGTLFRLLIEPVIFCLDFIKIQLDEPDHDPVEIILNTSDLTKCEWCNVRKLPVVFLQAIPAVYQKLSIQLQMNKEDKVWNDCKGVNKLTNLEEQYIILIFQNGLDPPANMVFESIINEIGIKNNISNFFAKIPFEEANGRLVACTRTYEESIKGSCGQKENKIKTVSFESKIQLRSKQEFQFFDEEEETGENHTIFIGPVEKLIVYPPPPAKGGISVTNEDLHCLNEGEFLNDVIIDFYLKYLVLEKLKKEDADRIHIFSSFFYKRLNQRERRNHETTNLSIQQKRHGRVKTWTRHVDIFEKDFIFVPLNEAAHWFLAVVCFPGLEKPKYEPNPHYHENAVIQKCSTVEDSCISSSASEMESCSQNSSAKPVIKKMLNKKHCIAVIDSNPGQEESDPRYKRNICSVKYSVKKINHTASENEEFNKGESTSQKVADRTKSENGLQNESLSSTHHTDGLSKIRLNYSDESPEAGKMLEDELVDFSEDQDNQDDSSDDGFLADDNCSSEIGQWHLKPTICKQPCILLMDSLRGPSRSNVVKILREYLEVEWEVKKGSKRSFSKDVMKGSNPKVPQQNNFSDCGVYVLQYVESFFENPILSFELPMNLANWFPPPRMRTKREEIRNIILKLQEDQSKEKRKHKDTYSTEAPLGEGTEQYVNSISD

[10] = target: Protein disulfide-isomerase (Homo sapiens, UniProt P07237); assay: inhibition of PDI-driven insulin aggregation – biochemical, turbidity, absorbance, cherry-picked samples, dose response (AID 602350); type: functional
Chain of Protein disulfide-isomerase (P07237 whole entry): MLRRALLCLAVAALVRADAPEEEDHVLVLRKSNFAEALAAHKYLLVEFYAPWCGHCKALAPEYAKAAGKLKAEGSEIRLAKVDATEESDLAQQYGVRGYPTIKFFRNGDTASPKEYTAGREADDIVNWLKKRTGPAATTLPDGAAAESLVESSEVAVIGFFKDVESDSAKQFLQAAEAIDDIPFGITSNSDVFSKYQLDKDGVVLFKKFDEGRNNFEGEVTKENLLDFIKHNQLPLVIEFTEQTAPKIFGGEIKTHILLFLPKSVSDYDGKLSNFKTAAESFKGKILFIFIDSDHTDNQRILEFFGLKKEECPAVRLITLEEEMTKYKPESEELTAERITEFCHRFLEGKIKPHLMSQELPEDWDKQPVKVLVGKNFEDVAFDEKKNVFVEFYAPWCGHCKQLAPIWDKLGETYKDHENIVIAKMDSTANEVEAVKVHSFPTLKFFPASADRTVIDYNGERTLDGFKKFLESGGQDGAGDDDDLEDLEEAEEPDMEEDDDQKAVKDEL

[11] = target: Melanin-concentrating hormone receptor 1 (Homo sapiens, UniProt Q99705); assay: Late-stage fluorescence-based counterscreen for antagonists of the G-protein coupled receptor 7 (GPR7): cell-based dose response assay to identify antagonists of the melanin-concentrating hormone receptor 1 (MCHR1) Set 5.; type: functional
Chain of Melanin-concentrating hormone receptor 1 (Q99705 whole entry): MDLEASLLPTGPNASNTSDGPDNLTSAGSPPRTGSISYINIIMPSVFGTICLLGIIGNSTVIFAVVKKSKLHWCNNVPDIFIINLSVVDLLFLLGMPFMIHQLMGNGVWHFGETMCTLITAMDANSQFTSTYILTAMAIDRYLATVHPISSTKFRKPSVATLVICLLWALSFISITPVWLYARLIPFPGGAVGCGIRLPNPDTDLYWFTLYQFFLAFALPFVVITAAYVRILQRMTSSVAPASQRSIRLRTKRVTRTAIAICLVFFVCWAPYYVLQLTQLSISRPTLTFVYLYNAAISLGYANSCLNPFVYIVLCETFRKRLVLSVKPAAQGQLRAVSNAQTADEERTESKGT

Chain of Beta-2 adrenergic receptor (P07550 whole entry): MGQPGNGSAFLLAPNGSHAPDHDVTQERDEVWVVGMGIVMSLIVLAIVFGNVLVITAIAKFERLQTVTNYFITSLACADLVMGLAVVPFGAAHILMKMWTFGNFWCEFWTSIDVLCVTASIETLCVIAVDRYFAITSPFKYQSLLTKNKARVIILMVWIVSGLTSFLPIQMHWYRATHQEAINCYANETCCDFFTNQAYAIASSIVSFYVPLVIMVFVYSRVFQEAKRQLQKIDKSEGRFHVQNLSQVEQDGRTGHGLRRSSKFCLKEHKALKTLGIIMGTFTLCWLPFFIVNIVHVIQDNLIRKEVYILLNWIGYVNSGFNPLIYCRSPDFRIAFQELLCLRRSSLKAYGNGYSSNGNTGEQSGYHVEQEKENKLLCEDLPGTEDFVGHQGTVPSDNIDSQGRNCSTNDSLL

SMILES | EC50 [1] | IC50 [7] | IC50 [8] | IC50 (Caspase-3) | IC50 [9] | other results
CC(=O)Nc1ccc(S(=O)(=O)NCCc2csc(-c3cccnc3)n2)cc1 | 0.162 µM (active) | – | – | – | – | –
Cc1ccccc1Cn1c(=N)n(CC(=O)c2ccc([N+](=O)[O-])cc2)c2ccccc21 | 15.2 µM (inactive) | – | – | – | – | EC50 [2]: 8.1 µM (active); EC50 [3]: 9.32 µM (active); CC50 (Vero [4]): 14 µM (active); IC50 (Vero [5]): > 25 µM (active); AC50 [6]: 5.63 µM (active)
Cc1nn(-c2ccccc2)c2c1C(c1ccc(OC(F)F)cc1)C(C#N)=C(N)O2 (configuration not stated) | – | > 99 µM (inactive) | > 99 µM (inactive) | > 99 µM (inactive) | > 99 µM (inactive) | –
CCOc1ccc2nc(N(CCCn3ccnc3)C(=O)c3ccc(Cl)s3)sc2c1 | – | > 99 µM (inactive) | > 99 µM (inactive) | > 99 µM (inactive) | > 99 µM (inactive) | –
C[C@H]1CN([C@@H](C)CO)C(=O)c2cc(NC(=O)Cc3cn(C)c4ccccc34)ccc2O[C@@H]1CN(C)S(=O)(=O)c1ccc(F)cc1 | – | – | – | – | – | AC50 [10]: 19.5 µM (active)
CSc1ccc(Oc2c(Cl)cnn(Cc3cccc4ccccc34)c2=O)cc1 | – | – | – | – | – | IC50 [11]: 1.22 µM (active)
